Consider two molecules from patent US20140271734A1, “BILE ACID RECYCLING INHIBITORS FOR TREATMENT OF BARRETT'S ESOPHAGUS AND GASTROESOPHAGEAL REFLUX DISEASE” (LUMENA PHARMACEUTICALS, INC., priority 2013, published 2014).

The Cmax is the maximum level reached in the sampled fluid or tissue. As a reminder, the Vss is a proportionality between amount in the body and measured concentration, not a real space. The low end stands for confinement near the circulation, the high end for extensive tissue distribution.

Each structure is given as a SMILES string. Marks after values point to notes of the source that are not given here.

Data set [1] has as its system 3-Hydroxy-3-Methylglutaryl Coenzyme A (HMG-CoA) Reductase. Briefly: HMG-CoA reductase activity in liver microsomes of treated dogs. The class given is in vivo, beagle dogs. Particulars: 14 Days; for HMG-CoA Reductase: n=8. On the procedure:
Healthy female and male beagle dogs in the age range of 8 to 10 months were used. The animals were acclimated for at least four weeks before dose administration. […] Animals in the control group (group 1) were given the same number of empty capsules as the animals of group 5 to treat all dose groups the same.
At the end of the study, animals were anesthetized, their livers removed and flash frozen and stored at −80 C. Homogenates of three gram liver tissue samples were prepared in 25 ml homogenization buffer [0.1 M potassium phosphate buffer, pH 7.2, containing 0.1 M sucrose, 50 mM KCl, 50 mM NaF, 5 mM ethylene glycol-bis((3-aminoethyl ether)-N,N,N′,N′-tetraacetic acid (EGTA), 1 mM EDTA, 3 mM dithiothreitol (DTT), and 1 mM phenylmethylsulfonyl fluoride (PMSF)]. A microsomal fraction was prepared by centrifugation at 10,000×g for ten minutes. The supernatant was subjected to centrifugation at 105,000×g for two hours. The microsomal fraction was resuspended in a 0.1 M Na tetrapyrophosphate buffer (pH 10), with 50 mM NaF, and 1 mM EDTA, and subjected to centrifugation for one hour at 105,000×g. The microsomal fraction was resuspended in the homogenization buffer, and assayed for protein content by Coomassie Protein Plus Assay reagent.
Microsomes (200 μg) were preincubated for 15 minutes at 37° C. in a total volume of […] buffer containing 0.1 M potassium phosphate (pH 7.4), 10 mM imidazole, 5 mM DTT, 10 mM EDTA, 3 mM NADP, 12 mM glucose-6-phosphate and 1 unit glucose-6-phosphate dehydrogenase (catalog number G4134, Sigma, St. Louis). The HMG-CoA reductase assay was initiated by the addition of 9 nmoles (0.5 μCi) DL-[3^14C] HMG-CoA (final assay volume was […]. The mixture was incubated for 60 minutes at 37° C. after which the assay was stopped with 25 μl of 6 N HCl. [^3H]Mevalonic acid (0.1 μCi), used as an internal standard to correct for incomplete recovery, was added to the reaction mixture along with 3 mg of unlabeled mevalonic acid lactone. The mixture was then incubated for an additional 30 minutes at 37° C. The [^14C]mevalonate that was formed and converted into mevalonic acid lactone during both incubations was isolated by thin layer chromatography. Each lane was scraped into 3 ml of InstaGel XF (Packard, Meriden, Conn.) and read on a Beckman Scintillator Counter. Reagents unless noted otherwise were obtained from Sigma, St. Louis, Mo. Isotopes were obtained from NEN Life Science Products, Boston, Mass.
On the technique in general: Liver microsomes are vesicles of endoplasmic reticulum, rich in cytochrome P450 enzymes.

A short description of data set [2]: Pharmacokinetics of LUM002 following single administration to rats. Format: in vivo, Sprague Dawley Rat. The following applies: for F: PO 20 mg/kg free acid, topmost estimate assuming 1 ng/mL over 24 h and dose-linear exposure. The protocol:
To each rat either a single oral (PO; 20 mg/kg free acid) or a single intravenous (IV; 2 mg/kg free acid) dose of [^14Cl]LUM002 was administered. For PO and IV administration, the test substance was prepared with the adequate amount of water to reach a solution with a concentration of approximately 4 mg/g (PO) and 1 mg/g (IV). Oral administration was a gavage using a stomach tube and IV administration was a bolus injection into the tail vein. Exact doses administered to animals were calculated according to syringe weights.
The doses of radioactivity actually administered were determined by using standards prior to and after treatment of the animals. Blood—Animals were anaesthetized (Isoflurane) for blood sampling (3 animals/time point) and then euthanized by […]. Blood samples (maximal volume from each animal approx. 8 mL) were withdrawn from the abdominal aorta into containers containing a small amount of lithium heparin. and samples were centrifuged for 2 minutes at 1540 g. Aliquots (100 μL) of blood were used for hematocrit determination. Animals for the control groups (male and/or female) were used as predose animals for sampling of untreated biological samples (blood and plasma or liver, myocardium, kidneys only from male control animals). Plasma—To obtain plasma, blood samples were centrifuged for 10 minutes and stored cooled before final division.
Bioanalytical analysis—50 μL of plasma samples were placed into an 1.5 mL reaction tube. 5 μL methanol was added to each sample. For protein precipitation, 100 μL of the internal standard working solution (100 ng/mL of benzyl-13C6-LUM002 in acetonitrile) and 50 μL acetonitrile were added. In case of double blank samples, pure acetonitrile was added. Tubes were sealed and mixed thoroughly for 10 seconds. The tubes were centrifuged for 5 minutes at ≧3000 g. 50 μL of the clear supernatant was transferred into an autoinjector vial and were diluted with 50 μL deionized water. Analysis of samples was performed by using LC-MSMS (injection volume 50-75 μL) with a lower limit of quantification in the assay of 1 ng/mL for LUM002.

[3] abbreviates: M, IV bolus injection 2 mg/kg free acid.

Consider `CCCCC1(CCCC)CS(=O)(=O)c2ccc(N(C)C)cc2[C@@H](c2ccc(OCc3ccc(C[N+]45CCN(CC4)CC5)cc3)cc2)[C@H]1O` [LUM001], for which the “HMG-CoA Reductase, % change from vehicle group” value in data set [1] (1 mg/kg/day) is “(+128) %”; in data set [1] (4 mg/kg/day) it was “(+242) %”; in data set [1] (12 mg/kg/day), “(+449) %”; in data set [1] (30 mg/kg/day), “(+656) %”. Moreover, the “HMG-CoA Reductase” value was 164 ± 20 pmol/mg/min in data set [1] (1 mg/kg/day), 246 ± 30 pmol/mg/min in data set [1] (4 mg/kg/day), 395 ± 46 pmol/mg/min in data set [1] (12 mg/kg/day) and 544 ± 33 pmol/mg/min in data set [1] (30 mg/kg/day).

Take `CCCC[C@]1(CC)CS(=O)(=O)c2ccc(N(C)C)cc2[C@@H](c2cccc(NC(=O)N[C@@H]3O[C@H](COS(=O)(=O)[O-])[C@@H](O)[C@H](OCc4ccccc4)[C@H]3O)c2)[C@H]1O.CCO.O.[K+]` [LUM002, potassium((2R,3R,4S,5R,6R)-4-benzyloxy-6-{3-[3-((3S,4R,5R)-3-butyl-7-dimethylamino-3-ethyl-4-hydroxy-1,1-dioxo-2,3,4,5-tetrahydro-1H-benzo[b]thiepin-5-yl)-phenyl]-ureido}-3,5-dihydroxy-tetrahydro-pyran-2-ylmethyl)sulphate ethanolate, hydrate]: in data set [2] (F), the F is on record as <1.3^e %. In data set [2] (setting [3]), this molecule showed a Cmax of 1036 ng/mL, a Vss of 3.890 L/kg and a t1/2 of 10.7 h. The Tmax in data set [2] (M, IV bolus injection 2 mg/kg free acid, extrapolated to t = 0) was 0^c h. In addition, in data set [2] (M), the F is reported as <1.3^e %. In addition, in data set [2] (rats, single PO 20 mg/kg vs IV 2 mg/kg free acid), the “LUM002 dose systemically absorbed” value is on record as “Less than 2%”.
